Results reported in ChEMBL document CHEMBL3616440, “Non-basic azolotriazinone MCHR1 antagonists for the treatment of obesity: An empirical brain-exposures-driven candidate selection for in vivo efficacy studies” (Bioorg Med Chem Lett, 2015).

Key:
[1] = tested on: Brain; assay: Drug concentration in Sprague-Dawley rat brain assessed as 6-(4-chlorophenyl)-3-(4-(2-hydroxy-2-methylpropoxy)-3-methoxyphenyl)pyrrolo[1,2-f][1,2,4]triazin-4(3H)-one level at 30 mg/kg, po qd at 20 hrs; type: ADME, organism-based; conditions: in vivo, read-out: Drug uptake
[2] = tested on: Brain; assay: Free drug level in Sprague-Dawley rat brain assessed as 6-(4-chlorophenyl)-3-(4-(2-hydroxy-2-methylpropoxy)-3-methoxyphenyl)pyrrolo[1,2-f][1,2,4]triazin-4(3H)-one level at 3 mg/kg, po qd at 20 hrs; type: ADME, organism-based; conditions: in vivo
[3] = tested on: Brain; assay: Free drug level in Sprague-Dawley rat brain assessed as 6-(4-chlorophenyl)-3-(4-(2-hydroxy-2-methylpropoxy)-3-methoxyphenyl)pyrrolo[1,2-f][1,2,4]triazin-4(3H)-one level at 10 mg/kg, po qd at 20 hrs; type: ADME, organism-based; conditions: in vivo
[4] = tested on: Brain; assay: Free drug level in Sprague-Dawley rat brain assessed as 6-(4-chlorophenyl)-3-(4-(2-hydroxy-2-methylpropoxy)-3-methoxyphenyl)pyrrolo[1,2-f][1,2,4]triazin-4(3H)-one level at 30 mg/kg, po qd at 20 hrs; type: ADME, organism-based; conditions: in vivo
[5] = tested on: Rattus norvegicus; assay: Antiobesity activity in Sprague-Dawley rat assessed as body weight reduction at 3 mg/kg, po qd after 4 days relative to control; type: functional; conditions: 96 h
[6] = tested on: Rattus norvegicus; assay: Antiobesity activity in Sprague-Dawley rat assessed as body weight reduction at 10 mg/kg, po qd after 4 days relative to control; type: functional; conditions: 96 h
[7] = tested on: Rattus norvegicus; assay: Antiobesity activity in Sprague-Dawley rat assessed as body weight reduction at 30 mg/kg, po qd after 4 days relative to control; type: functional; conditions: 96 h
[8] = tested on: Liver; assay: Prodrug conversion in Sprague-Dawley rat liver assessed as 6-(4-chlorophenyl)-3-(4-(2,3-dihydroxy-2-methylpropoxy)-3-methoxyphenyl)pyrrolo[1,2-f][1,2,4]triazin-4(3H)-one formation at 10 mg/kg, po qd at 20 hrs post dose; type: ADME, organism-based; conditions: in vivo
[9] = tested on: Liver; assay: Prodrug conversion in Sprague-Dawley rat liver assessed as 6-(4-chlorophenyl)-3-(4-(2,3-dihydroxypropoxy)-3-methoxyphenyl)pyrrolo[1,2-f][1,2,4]triazin-4(3H)-one formation at 10 mg/kg, po qd at 20 hrs post dose; type: ADME, organism-based; conditions: in vivo
[10] = tested on: Liver; assay: Prodrug conversion in Sprague-Dawley rat liver assessed as 3-(4-(6-(4-chlorophenyl)-4-oxopyrrolo[1,2-f][1,2,4]triazin-3(4H)-yl)-2-methoxyphenoxy)-2-hydroxy-2-methylpropanoic acid formation at 10 mg/kg, po qd at 20 hrs post dose; type: ADME, organism-based; conditions: in vivo
[11] = tested on: Liver; assay: Prodrug conversion in Sprague-Dawley rat liver assessed as 3-(4-(6-(4-chlorophenyl)-4-oxopyrrolo[1,2-f][1,2,4]triazin-3(4H)-yl)-2-methoxyphenoxy)-2-hydroxypropanoic acid formation at 10 mg/kg, po qd at 20 hrs post dose; type: ADME, organism-based; conditions: in vivo
[12] = Ratio of free drug level in brain of Sprague-Dawley rat assessed as 6-(4-chlorophenyl)-3-(4-(2-hydroxy-2-methylpropoxy)-3-methoxyphenyl)pyrrolo[1,2-f][1,2,4]triazin-4(3H)-one level at 3 mg/kg, po to Ki for rat MCHR1; type: ADME, organism-based; conditions: in vivo
[13] = Ratio of free drug level in brain of Sprague-Dawley rat assessed as 6-(4-chlorophenyl)-3-(4-(2-hydroxy-2-methylpropoxy)-3-methoxyphenyl)pyrrolo[1,2-f][1,2,4]triazin-4(3H)-one level at 10 mg/kg, po to Ki for rat MCHR1; type: ADME, organism-based; conditions: in vivo
[14] = Ratio of free drug level in brain of Sprague-Dawley rat assessed as 6-(4-chlorophenyl)-3-(4-(2-hydroxy-2-methylpropoxy)-3-methoxyphenyl)pyrrolo[1,2-f][1,2,4]triazin-4(3H)-one level at 30 mg/kg, po to Ki for rat MCHR1; type: ADME, organism-based; conditions: in vivo
[15] = Cmax in Sprague-Dawley rat at 10 mg/kg, po qd after 1.5 hrs; type: ADME, organism-based; parameters: dose 10 mg/kg, route oral; conditions: in vivo
[16] = AUC (0 to 8 hrs ) in Sprague-Dawley rat at 10 mg/kg, po qd; type: ADME, organism-based; parameters: time < 8 hr, dose 10 mg/kg, route oral; conditions: in vivo
[17] = tested on: Rattus norvegicus; assay: Cmax in Sprague-Dawley rat assessed as 6-(4-chlorophenyl)-3-(4-(2-hydroxy-2-methylpropoxy)-3-methoxyphenyl)pyrrolo[1,2-f][1,2,4]triazin-4(3H)-one level at 10 mg/kg, po qd at 4 hrs; type: ADME, organism-based; parameters: dose 10 mg/kg, route oral; conditions: in vivo
[18] = tested on: Rattus norvegicus; assay: AUC (0 to 8 hrs ) in Sprague-Dawley rat assessed as 6-(4-chlorophenyl)-3-(4-(2-hydroxy-2-methylpropoxy)-3-methoxyphenyl)pyrrolo[1,2-f][1,2,4]triazin-4(3H)-one level at 10 mg/kg, po qd; type: ADME, organism-based; parameters: dose 10 mg/kg, time < 8 hr, route oral; conditions: in vivo
[19] = tested on: Plasma; assay: Plasma concentration in Sprague-Dawley rat assessed as 6-(4-chlorophenyl)-3-(4-(2-hydroxy-2-methylpropoxy)-3-methoxyphenyl)pyrrolo[1,2-f][1,2,4]triazin-4(3H)-one level at 10 mg/kg, po qd at 8 hrs; type: ADME, organism-based; conditions: in vivo
[20] = tested on: Brain; assay: Drug concentration in Sprague-Dawley rat brain assessed as 6-(4-chlorophenyl)-3-(4-(2-hydroxy-2-methylpropoxy)-3-methoxyphenyl)pyrrolo[1,2-f][1,2,4]triazin-4(3H)-one level at 10 mg/kg, po qd at 8 hrs; type: ADME, organism-based; conditions: in vivo
[21] = tested on: Nucleic Acid; assay: Ratio of drug level in Sprague-Dawley rat brain to plasma assessed as 6-(4-chlorophenyl)-3-(4-(2-hydroxy-2-methylpropoxy)-3-methoxyphenyl)pyrrolo[1,2-f][1,2,4]triazin-4(3H)-one level at 10 mg/kg, po qd; type: ADME, organism-based
[22] = tested on: Plasma; assay: Fraction unbound in Sprague-Dawley rat plasma assessed as 6-(4-chlorophenyl)-3-(4-(2-hydroxy-2-methylpropoxy)-3-methoxyphenyl)pyrrolo[1,2-f][1,2,4]triazin-4(3H)-one level; type: ADME, cell-free
[23] = tested on: Brain; assay: Drug concentration in Sprague-Dawley rat brain assessed as 6-(4-chlorophenyl)-3-(4-(2-hydroxy-2-methylpropoxy)-3-methoxyphenyl)pyrrolo[1,2-f][1,2,4]triazin-4(3H)-one level at 3 mg/kg, po qd at 20 hrs; type: ADME, organism-based; conditions: in vivo, read-out: Drug uptake
[24] = tested on: Brain; assay: Drug concentration in Sprague-Dawley rat brain assessed as 6-(4-chlorophenyl)-3-(4-(2-hydroxy-2-methylpropoxy)-3-methoxyphenyl)pyrrolo[1,2-f][1,2,4]triazin-4(3H)-one level at 10 mg/kg, po qd at 20 hrs; type: ADME, organism-based; conditions: in vivo, read-out: Drug uptake

- concentration [1]: 11700 nM
- Drug uptake(free) [2]: 6.3 nM
- Drug uptake(free) [3]: 16 nM
- Drug uptake(free) [4]: 47 nM
- Drug metabolism [8]: 10 µM
- Drug metabolism [9]: 10 µM
- Drug metabolism [10]: 2.4 µM
- Drug metabolism [11]: 2.4 µM
- Ratio [12]: 3.5
- Ratio [13]: 8.9
- Ratio [14]: 26
- Cmax [15]: 5 nM
- AUC at 8 h [16]: 0.015 µM·h
- Cmax [17]: 1570 nM
- AUC [18]: 8.2 µM·h
- concentration [19]: 903 nM
- Drug uptake [20]: 4.551 µM
- BPR [21]: 5
- Fu [22]: 0.4%
- concentration [23]: 1570 nM
- concentration [24]: 4040 nM
Structure (SMILES): COc1cc(-n2cnn3cc(-c4ccc(Cl)cc4)cc3c2=O)ccc1OCC(C)(C)OC(=O)CN
- inhibition in vivo at 3 mg/kg [5]: 3.6%
- inhibition in vivo at 10 mg/kg [6]: 4.7%
- inhibition in vivo at 30 mg/kg [7]: 6.9%
